The assay concerns the target T1, peroxisome proliferator-activated receptor-α (PPARα) (Homo sapiens, UniProt Q07869).
T1 sequence (Q07869 196-468 limits assumed): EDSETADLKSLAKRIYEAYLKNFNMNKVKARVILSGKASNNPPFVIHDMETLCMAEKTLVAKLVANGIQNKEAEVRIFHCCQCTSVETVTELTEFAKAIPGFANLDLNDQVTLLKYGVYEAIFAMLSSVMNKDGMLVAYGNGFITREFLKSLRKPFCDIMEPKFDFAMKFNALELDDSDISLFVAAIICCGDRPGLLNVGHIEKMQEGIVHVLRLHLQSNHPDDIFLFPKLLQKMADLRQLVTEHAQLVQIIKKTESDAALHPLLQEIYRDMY
As to the kind of experiment: GAL4-PPARα LBD one-hybrid luciferase transactivation assay in HEK293 cells. Format: cell-based.

pEC50: −log10 of the molar value.

Molecule `CCCCCCCC[C@@H](O)CCCCCCCCC(=O)O` [HSA, (R)‐10‐hydroxyoctadecanoic acid] showed a pEC50 of 5.26.

For the origin of these results see article PMC6852045 (International Journal of Cosmetic Science, 2019).
